# Source: the supplement of paper PMC10307832
# Assays:
# Assay in all cases: relative viability (nuclei count vs DMSO), 5 days (fraction); higher = more cells survive
# AZD8055 + Phenformin = compound: COc1ccc(-c2ccc3c(N4CCOC[C@@H]4C)nc(N4CCOC[C@@H]4C)nc3n2)cc1CO [AZD8055] + N=C(N)NC(=N)NCCc1ccccc1 [Phenformin] (partner 250 µM)
# Method in brief: (§1)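 Lung cancer cell lines, seeded in 1536-well plates, were treated the following day by pin tool with a single drug or with five library-drug doses (not always all listed) in √10 steps on top of a fixed anchor-drug dose. Cells were fixed and nuclei stained in one step after 5 days, and nuclei were counted. Relative viability is the nuclei count for treated wells divided by that for vehicle wells, reported as medians of duplicate plates.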
# AZD8055 + OSI-027 = compound: COc1ccc(-c2ccc3c(N4CCOC[C@@H]4C)nc(N4CCOC[C@@H]4C)nc3n2)cc1CO [AZD8055] + COc1cccc2cc(-c3nc([C@H]4CC[C@H](C(=O)O)CC4)n4ncnc(N)c34)[nH]c12 [OSI-027] (partner 0.5 µM)
# Method in brief: as §1
# AZD8055 + Trametinib = compound: COc1ccc(-c2ccc3c(N4CCOC[C@@H]4C)nc(N4CCOC[C@@H]4C)nc3n2)cc1CO [AZD8055] + CC(=O)Nc1cccc(-n2c(=O)n(C3CC3)c(=O)c3c(Nc4ccc(I)cc4F)n(C)c(=O)c(C)c32)c1 [Trametinib] (partner 0.02 µM)
# Method in brief: as §1
# AZD8055 + Crizotinib = compound: COc1ccc(-c2ccc3c(N4CCOC[C@@H]4C)nc(N4CCOC[C@@H]4C)nc3n2)cc1CO [AZD8055] + C[C@@H](Oc1cc(-c2cnn(C3CCNCC3)c2)cnc1N)c1c(Cl)ccc(F)c1Cl [Crizotinib] (partner 1 µM)
# Method in brief: as §1
Cell Line,relative viability (AZD8055 + Phenformin; first compound 0.01 µM),relative viability (AZD8055 + Phenformin; first compound 0.03162 µM),relative viability (AZD8055 + Phenformin; first compound 0.1 µM),relative viability (AZD8055 + Phenformin; first compound 0.3162 µM),relative viability (AZD8055 + Phenformin; first compound 1 µM),relative viability (AZD8055 + OSI-027; first compound 0.01 µM),relative viability (AZD8055 + OSI-027; first compound 0.03162 µM),relative viability (AZD8055 + OSI-027; first compound 0.1 µM),relative viability (AZD8055 + OSI-027; first compound 0.3162 µM),relative viability (AZD8055 + OSI-027; first compound 1 µM),relative viability (AZD8055 + Trametinib; first compound 0.01 µM),relative viability (AZD8055 + Trametinib; first compound 0.03162 µM),relative viability (AZD8055 + Trametinib; first compound 0.1 µM),relative viability (AZD8055 + Trametinib; first compound 0.3162 µM),relative viability (AZD8055 + Trametinib; first compound 1 µM),relative viability (AZD8055 + Crizotinib; first compound 0.01 µM),relative viability (AZD8055 + Crizotinib; first compound 0.03162 µM),relative viability (AZD8055 + Crizotinib; first compound 0.1 µM),relative viability (AZD8055 + Crizotinib; first compound 0.3162 µM),relative viability (AZD8055 + Crizotinib; first compound 1 µM)
NCI-H1666,0.619,0.553,0.584,0.542,0.488,0.894,0.905,0.887,0.747,0.717,0.887,0.877,0.877,0.797,0.793,0.936,1.01,0.812,0.648,0.465
NCI-H1734,0.417,0.288,0.264,0.176,0.194,0.665,0.553,0.493,0.319,0.225,0.747,0.559,0.531,0.312,0.242,0.734,0.587,0.472,0.256,0.282
NCI-H1755,0.609,0.594,0.541,0.463,0.474,0.752,0.698,0.649,0.544,0.537,0.729,0.673,0.615,0.404,0.385,0.824,0.762,0.652,0.397,0.393
NCI-H1792,0.193,0.193,0.0875,0.0907,0.109,0.799,0.674,0.574,0.431,0.26,0.511,0.273,0.227,0.0933,0.0673,0.927,0.82,0.82,0.173,0.157
NCI-H1915,0.373,0.348,0.356,0.364,0.302,0.664,0.551,0.656,0.547,0.459,0.286,0.254,0.259,0.174,0.146,0.922,0.822,0.901,0.642,0.422
NCI-H1944,0.193,0.2,0.187,0.148,0.129,0.418,0.454,0.378,0.297,0.24,0.411,0.378,0.292,0.228,0.191,1.09,0.918,0.973,0.427,0.343
NCI-H1975,0.369,0.309,0.233,0.172,0.174,0.677,0.56,0.375,0.237,0.235,0.417,0.313,0.193,0.192,0.18,0.943,0.959,0.515,0.386,0.254
NCI-H1993,0.509,0.469,0.529,0.49,0.576,0.545,0.502,0.625,0.353,0.568,0.493,0.443,0.517,0.449,0.413,0.819,0.688,0.59,0.588,0.609
